Patent US6352958B1, “Cycloimido-substituted benzofused heterocyclic herbicides” (FMC Corporation, priority 1997, dated 2002)

Tests used:
[1] = test system: field corn (Zea mays var. Pioneer 3732); test: Postemergence herbicidal activity, corn; assay type: in vivo; conditions: Zea mays, post-emergence, rate of application 0.3 Kg/Ha, rated after 12-17 days, read-out: Postemergence herbicidal activity (% control) CRN
[2] = test system: velvetleaf (Abutilon theophrasti); test: Postemergence herbicidal activity, velvetleaf; assay type: in vivo; conditions: Abutilon theophrasti, post-emergence, rate of application 0.3 Kg/Ha, rated after 12-17 days, read-out: Postemergence herbicidal activity (% control) ABUTH
[3] = test system: green foxtail (Setaria viridis); test: Preemergence herbicidal activity, green foxtail; assay type: in vivo; conditions: Setaria viridis, pre-emergence, Rate of Application 0.3 Kg/Ha, examined after 12-17 days, read-out: PREEMERGENCE HERBICIDAL ACTIVITY (% CONTROL) SETVI
[4] = test system: morningglory (Ipomea lacunosa or Ipomea hederacea); test: Preemergence herbicidal activity, morningglory; assay type: in vivo; conditions: Ipomoea, pre-emergence, Rate of Application 0.3 Kg/Ha, examined after 12-17 days, read-out: PREEMERGENCE HERBICIDAL ACTIVITY (% CONTROL) IPOSS
[5] = test system: common cocklebur (Xanthium strumarium L.); test: Postemergence herbicidal activity, cocklebur; assay type: in vivo; conditions: Xanthium strumarium, post-emergence, rate of application 0.3 Kg/Ha, rated after 12-17 days, read-out: Postemergence herbicidal activity (% control) XANPE
[6] = test system: wheat (Triticum aestivum var. Lew); test: Postemergence herbicidal activity, wheat; assay type: in vivo; conditions: Triticum aestivum, post-emergence, rate of application 0.3 Kg/Ha, rated after 12-17 days, read-out: Postemergence herbicidal activity (% control) WHT

Row | melting point | Structure (SMILES) | inhibition at 300 g/ha [1] | inhibition at 300 g/ha [2] | inhibition at 300 g/ha [3] | inhibition at 300 g/ha [4] | inhibition at 300 g/ha [5] | inhibition at 300 g/ha [6]
1 | 208 to 210 °C | Cn1c(C(F)(F)F)cc(=O)n(-c2c(F)cc(Cl)c3[nH]c(C(F)(F)F)cc23)c1=O [Compound 500, 3-(7-CHLORO-5-FLUORO-2-TRIFLUOROMETHYLINDOL-4-YL)-1-METHYL-6-TRIFLUOROMETHYL-2,4(1H,3H)-PYRIMIDINEDIONE] | 95% | 100% | 100% | 100% | 100% | 65%
2 | 150 to 155 °C | CCc1nc2c(-n3c(=O)cc(C(F)(F)F)n(C)c3=O)c(F)cc(Cl)c2[nH]1 [Compound 367, 3-(4-CHLORO-2-ETHYL-6-FLUOROBENZIMIDAZOL-7-YL)-1-METHYL-6-TRIFLUOROMETHYL-2,4(1H,3H)-PYRIMIDINEDIONE] | 100% | 100% | 100% | 100% | 100% | 100%
3 | – | CC(C)c1nc2c(-n3c(=O)cc(C(F)(F)F)n(C)c3=O)c(F)cc(Cl)c2o1 [Compound 28, 1-METHYL-6-TRIFLUOROMETHYL-3-[7-CHLORO-5-FLUORO-2-(1-METHYLETHYL)BENZOXAZOL4-YL]-2,4(1H,3H)-PYRIMIDINEDIONE] | 80% | 100% | 100% | 100% | 90% | 80%
